The target of one data set is T1, adenosine A2 receptor (Rattus norvegicus, UniProt P30543).
T1 construct: Brains were thawed and then kept on ice while the striata were dissected out; tissue Pel-Freez (Rogers, Arkansas); host or cells: rat striatum (membranes)
Nature of the data set: Adenosine Receptor Binding - A2 Receptor Affinity (RBA2), [3H]NECA displacement in striatal membranes. The note with it: 4 nM [3H]NECA, 50 nM N6-cyclopentyladenosine, 60 minutes at 25°C, read-out: RBA-2 (IC50, A2 receptor affinity). Here is the method:
Brains from 200-500 g mixed sex Sprague-Dawley rats were purchased from Pel-Freez (Rogers, Arkansas). Fresh brains from male Long-Evans hooded rats (Blue Spruce Farms, Altamont, NY) gave essentially identical results. Brains were thawed and then kept on ice while the striata were dissected out. Striata were disrupted in 10 vol of ice-cold 50 mM Tris·HCl (pH 7.7 at 25°C, pH 8.26 at 5°C) (Tris) for 30 seconds in a Polytron PT―10 (Brinkmann) at setting 5. The suspension was centrifuged at 50,000 xg for ten minutes, the supernatant discarded, the pellet resuspended in 10 vol ice-cold Tris as above, recentrifuged, resuspended at 1 g/5 ml, and stored in plastic vials at -70°C (stable for at least six months). When needed, tissue was thawed at room temperature, disrupted in a Polytron, and kept on ice until used.
All incubations were for 60 minutes at 25°C in 12 x 75 mm glass tubes containing 1 ml Tris with 5 mg original tissue weight of rat weight of rat striatal membranes, 4 nM [^3H]-N-ethyl adenosine-5'-carboxamide ([^3H]NECA), 50 nM N^s-cyclopentyladenosine (to eliminate A1 receptor binding), 10 mM MgCI2, 0.1 units/ml of adenosine deaminase and 1% dimethylsulfoxide. N^6-Cyclopentyladenosine was dissolved at 10 mM in 0.02 N HCI and diluted in Tris. Stock solutions and dilutions of N^6-cyclopentyladenosine could be stored at -20°C for several months. Test compounds were dissolved at 10 mM in dimethylsulfoxide on the same day as the experiment, and diluted in dimethylsulfoxide to 100x the final incubation concentration. Control incubations received an equal volume (10 µl) of dimethylsulfoxide; the resulting concentration of dimethylsulfoxide had no effect on binding. [^3H]NECA was diluted to 40 nM in Tris. The membrane suspension (5 mg/0.79 ml) contained sufficient MgC12 and adenosine deaminase to give 10 mM and 0.1 units/ml, respectively, final concentration in the incubation. […] After all additions, the rack of tubes was vortexed, and the tubes were then incubated for 60 min at 25°C in a shaking water bath. The rack of tubes was vortexed an additional time halfway through the incubation.
Incubations were terminated by filtration through 2.4 cm GF/B filters under reduced pressure. Each tube was filtered as follows: the contents of the tube were poured onto the filter, 4 ml of ice-cold Tris were added to the tube and the contents poured onto the filter, and the filter was washed twice with 4 ml of ice-cold Tris. The filtration was complete in about 12 seconds. Filters were put in scintillation vials, 8 ml of Formula 947 scintillation fluid added, and the vials left overnight, shaken, and counted in a liquid scintillation counter at 40% efficiency.
Nonspecific binding was defined as binding in the presence of […] N^6-cyclopentyladenosine, and specific binding was defined as total binding minus nonspecific binding. The IC50 was calculated by weighted nonlinear least squares curve-fitting to the mass action equation. [formula] • where Y is cpm bound • T is cpm total binding without drug • S is cpm specific binding without drug • D is the concentration of drug • and K is the IC50 of the drug Weighting factors were calculated under the assumption that the standard deviation was proportional to the predicted value of Y. Nonspecific binding was treated as a very large (infinite) concentration of drug in the computer analysis.

The test system of a further data set is spontaneous locomotion. As to the kind of experiment: Mouse Activity and Screen Test Procedure (MAST): locomotor activity in actophotometer. It is filed as in vivo, Swiss-Webster male mice. To be noted: one hour prior to testing. Here is the method:
(§1) Nine unfasted Swiss-Webster male mice weighing 20-30 g are equally divided into three groups for each drug dose to be tested. There is, data for each dose level was generated by three separate groups of three mice each.
(§2) A minimum of three dose levels (10, 30, and 100 mg/kg) are tested for each drug. Treatments are administered intraperitoneally one hour prior to testing. All dosages are calculated as parent compound and given in volumes of 10 ml/kg. Compounds are dissolved or suspended in 0.2% Methocel. Control animals are injected with Methocel.
The actophotometer consists of a cylindrical chamber whose center is occupied by another cylinder which contains the illumination for six photocells located on the perimeter of the chamber. Six light-beam interruptions equal one count. Locomotor activity is recorded by computer at ten minute intervals for 60 minutes.
Data: The data obtained from the screen test are expressed as percent of mice falling off the screen. Data derived from locomotor activity of drug treated mice are compared to the activity of vehicle treated animals and are expressed as percent inhibition of spontaneous locomotion. All percentages reported for inhibition of locomotion (LI) are based upon data accumulated for one hour. […] An overall dose rating is obtained by the following criteria:
LAD refers to the lowest dose at which an A rating is achieved. […] The compounds are identified in the Examples.

Data set [1] has as its system mice falling off the inverted screen. Nature of the data set: Mouse Activity and Screen Test Procedure (MAST): screen test (ST). It is filed as in vivo, Swiss-Webster male mice. The note with it: one hour postinjection, percent of mice falling off the screen.
Text: The compounds of the invention are new chemical substances which are useful as pharmaceutical agents for the treatment of psychoses. The antipsychotic activity of representative compounds of the invention was established by the Mouse Activity and Screen Test Procedure (MAST) described below.
as §1, §2
Testing: A two part testing procedure is started one hour postinjection. First, the screen test (ST) is performed (see Pharmac. Biochem. Behav. 6,351-353,1977). Briefly this test consists of placing mice on individual wire screens which are then rotated 180 degrees at the start of a 60 second observation period. The number of mice falling off the inverted screen is recorded.
Data: The data obtained from the screen test are expressed as percent of mice falling off the screen. Data derived from locomotor activity of drug treated mice are compared to the activity of vehicle treated animals and are expressed as percent inhibition of spontaneous locomotion. All percentages reported for inhibition of locomotion (LI) are based upon data accumulated for one hour. Both phases of testing are graded: A=60-100%; C=31-59%; and N=0-30%. An overall dose rating is obtained by the following criteria:
LAD refers to the lowest dose at which an A rating is achieved. […] Utilizing this procedure, an overall dose rating of A was obtained for the noted compound at the indicated dose. The compounds are identified in the Examples.

T1 sequence (P30543 whole entry): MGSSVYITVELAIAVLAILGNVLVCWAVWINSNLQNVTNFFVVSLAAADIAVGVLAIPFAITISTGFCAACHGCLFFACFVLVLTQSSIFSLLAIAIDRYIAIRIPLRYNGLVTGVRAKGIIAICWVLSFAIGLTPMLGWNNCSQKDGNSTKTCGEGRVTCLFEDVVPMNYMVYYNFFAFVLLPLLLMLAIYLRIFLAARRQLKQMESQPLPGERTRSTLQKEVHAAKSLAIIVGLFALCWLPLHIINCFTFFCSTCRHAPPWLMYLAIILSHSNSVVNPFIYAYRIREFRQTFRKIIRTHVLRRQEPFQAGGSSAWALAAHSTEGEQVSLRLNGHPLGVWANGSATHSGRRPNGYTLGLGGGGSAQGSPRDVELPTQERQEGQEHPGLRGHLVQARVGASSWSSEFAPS

The term IC50 denotes the point on the concentration scale where inhibition reaches its midpoint. Consider `Cc1ccc2c(c1C)OC(C)C(Nc1ncnc3c1ncn3[C@@H]1O[C@H](CO)[C@@H](O)[C@H]1O)C2` (some centres unmarked) [Example 11], for which the half-inhibitory concentration (IC50) on adenosine A2 receptor was determined as 360 nM. Moreover, the “Inhibition of Mouse Locomotion Activity” value in the data set on spontaneous locomotion (1 mg/kg intraperitoneally) is 13%; in the data set with spontaneous locomotion (3 mg/kg intraperitoneally), 27%; in the data set on spontaneous locomotion (10 mg/kg intraperitoneally), 90%; with spontaneous locomotion (30 mg/kg intraperitoneally), 95%; with spontaneous locomotion (100 mg/kg intraperitoneally), 99%. Also, the “Screen Test Failure” value in data set [1] (1 mg/kg intraperitoneally) worked out at 0%; in data set [1] (3 mg/kg intraperitoneally) it was 0%; in data set [1] (10 mg/kg intraperitoneally) it was 11%; in data set [1] (30 mg/kg intraperitoneally) it was 22%; in data set [1] (100 mg/kg intraperitoneally), 67%.

As for `COc1ccc2c(c1)OCC(Nc1ncnc3c1ncn3[C@@H]1O[C@H](CO)[C@@H](O)[C@H]1O)C2` (some centres unmarked) [Example 3], the IC50 on adenosine A2 receptor was 1360 nM. In addition, the “Inhibition of Mouse Locomotion Activity” value in the data set on spontaneous locomotion (1 mg/kg intraperitoneally) came to 25%; in the data set on spontaneous locomotion (3 mg/kg intraperitoneally) it was 58%; in the data set with spontaneous locomotion (10 mg/kg intraperitoneally), 89%; in the data set on spontaneous locomotion (30 mg/kg intraperitoneally), 97%. The “Screen Test Failure” value in data set [1] (1 mg/kg intraperitoneally) was found to be 0%; in data set [1] (3 mg/kg intraperitoneally) it was 0%; in data set [1] (10 mg/kg intraperitoneally), 22%; in data set [1] (30 mg/kg intraperitoneally) it was 22%.

`OC[C@H]1O[C@@H](n2cnc3c(NC4CSc5ccccc5C4)ncnc32)[C@H](O)[C@@H]1O` (some centres unmarked) [Example 2]: the IC50 on adenosine A2 receptor worked out at 340 nM. Besides, the “Inhibition of Mouse Locomotion Activity” value is 34% in the data set with spontaneous locomotion (1 mg/kg intraperitoneally); 60% with spontaneous locomotion (3 mg/kg intraperitoneally); 96% in the data set with spontaneous locomotion (10 mg/kg intraperitoneally); 98% with spontaneous locomotion (30 mg/kg intraperitoneally); 99% with spontaneous locomotion (100 mg/kg intraperitoneally). The “Screen Test Failure” value turned out to be 11% in data set [1] (1 mg/kg intraperitoneally); 0% in data set [1] (3 mg/kg intraperitoneally); 11% in data set [1] (10 mg/kg intraperitoneally); 56% in data set [1] (30 mg/kg intraperitoneally); 100% in data set [1] (100 mg/kg intraperitoneally).

Turning to `Cc1ccc2c(c1C)OCC(Nc1ncnc3c1ncn3[C@@H]1O[C@H](CO)[C@@H](O)[C@H]1O)C2` (some centres unmarked) [Example 10, N^6-[7,8-Dimethyl-3-chromanylamino]adenosine], the IC50 on adenosine A2 receptor was found to be 942 nM. In addition, the “Inhibition of Mouse Locomotion Activity” value in the data set with spontaneous locomotion (1 mg/kg intraperitoneally) was -8%; with spontaneous locomotion (3 mg/kg intraperitoneally) it was 33%; with spontaneous locomotion (10 mg/kg intraperitoneally), 85%; in the data set with spontaneous locomotion (30 mg/kg intraperitoneally), 91%; with spontaneous locomotion (100 mg/kg intraperitoneally), 96%. The “Screen Test Failure” value in data set [1] (1 mg/kg intraperitoneally) was found to be 0%; in data set [1] (3 mg/kg intraperitoneally) it was 0%; in data set [1] (10 mg/kg intraperitoneally) it was 11%; in data set [1] (30 mg/kg intraperitoneally) it was 22%; in data set [1] (100 mg/kg intraperitoneally), 55%.

For `O=S1(=O)CCC(Nc2ncnc3c2ncn3[C@@H]2O[C@H](CO)[C@@H](O)[C@H]2O)c2ccccc21` (some centres unmarked) [Example 16, N^6-[4-Benzothiopyran-1,1-dioxideamino]adenosine], the IC50 at adenosine A2 receptor came out at 1390 nM. For the same molecule, the “Inhibition of Mouse Locomotion Activity” value is on record as 15% in the data set with spontaneous locomotion (3 mg/kg intraperitoneally), 69% in the data set on spontaneous locomotion (10 mg/kg intraperitoneally) and 98% with spontaneous locomotion (30 mg/kg intraperitoneally). The “Screen Test Failure” value in data set [1] (3 mg/kg intraperitoneally) stood at 0%; in data set [1] (10 mg/kg intraperitoneally), 22%; in data set [1] (30 mg/kg intraperitoneally), 55%.

Turning to `CC(C)(C)c1ccc2c(c1)OCC(Nc1ncnc3c1ncn3[C@@H]1O[C@H](CO)[C@@H](O)[C@H]1O)C2` (some centres unmarked) [Example 13, N^6-[7-t-Butyl-3-chromanylamino)adenosine], the IC50 on adenosine A2 receptor amounted to 2940 nM. The results for the “Inhibition of Mouse Locomotion Activity” value in the data set with spontaneous locomotion (10 mg/kg intraperitoneally), with spontaneous locomotion (30 mg/kg intraperitoneally) and with spontaneous locomotion (100 mg/kg intraperitoneally) were 50%, 82% and 88%, respectively. Moreover, the entries for the “Screen Test Failure” value in data set [1] (10 mg/kg intraperitoneally), in data set [1] (30 mg/kg intraperitoneally) and in data set [1] (100 mg/kg intraperitoneally) were 0%, 0% and 22%, respectively.
